Consider two compounds from US20080039431A1, “Method of improving plant growth by reducing viral infections” (priority 2006, published 2008).

Molecules are shown by their SMILES.

The subject of experiment [1] is tomato spotted wilt virus (TSWV). As to the kind of experiment: Replicated tomato drench trial (Example 6). To be noted: prothioconazole 0.0084 g ai/plant, imidacloprid 0.01 g/plant; for Percent control of incidence of TSWV in tomatoes: Abbott's formula; for Percent incidence of TSWV in tomatoes: drench. It counts as in vivo, tomato (Lycopersicon esculentum MILL.). As for the experimental part:
Cultivation—A replicated trial on tomato (Lycopersicon esculentum MILL.) was initiated in Molino, Fla. to determine if drenches of prothioconazole alone and in combination with the insecticide imidacloprid would suppress TSWV in tomato. Tomato plants, cultivar FL 47 were transplanted on April 11 into 4 rows, each 9.1 meters long, 60 plants per plot, with three replications. Treatments were applied, into a shallow bowl dug at the base of each plant, as a drench in 40 ml water per plant (6 days after transplanting) on April 17. Treatments— • Untreated—no in-furrow treatment • Imidacloprid@0.01 g imidacloprid/plant. • Prothioconazole—prothioconazole@0.0084 g active ingredient/plant. • Prothioconazole+Imidacloprid—prothioconazole@0.0084 g active ingredient/plant+imidacloprid@0.01 g imidacloprid/plant. TSWV rating—University researchers recommend buffers in TSWV testing. Therefore, the center two rows (30 plants) per plot were used for virus ratings with the outer two rows acting as buffers. TSWV incidence determinations were made based on the presence or absence of TSWV symptoms (chlorosis and stunting) per plant. The four treatments were rated at 21, 29, and 39 days after treatment. Synergy formula—The Colby formula for proof of synergy was used in Example 6. The percent incidence values were converted to percent control with Abbotts's formula (1-treated/untreated)*100. Percent control values for solo treatment X and solo treatment Y, were entered into the Colby formula. When the value determined from the plots with both treatment X and Y applied together is greater than the value determined by the Colby formula then synergy is indicated. The formula is: X+Y−(X*Y/100).

The test system is the same in experiment [2]. As to the kind of experiment: Bell pepper drench trial (Example 7). In kind it is in vivo, bell pepper (Capsicum annum L.). As to conditions: for Percent control of incidence of TSWV in bell peppers: Abbott's formula; for Percent incidence TSWV in bell peppers: drench, prothioconazole 0.0084 g ai/plant, imidacloprid 0.01 g/plant. The method, then: Cultivation—A trial on bell pepper (Capsicum annum L.) was initiated in Molino, Fla. to see if drenches of prothioconazole alone and in combination with the insecticide imidacloprid could control TSWV in pepper. Bell pepper plants were transplanted on April 11 into 9.1 meter plots with three replications as in Example 6. Treatments were applied as a drench in 40 ml water per plant (7 days after transplanting) on April 18 as in Example 6.
Treatments— • Untreated—no in-furrow treatment. • Imidacloprid—imidacloprid@0.01 g imidacloprid/plant. • Prothioconazole—prothioconazole@0.0084 g prothioconazole/plant. • Prothioconazole+Imidacloprid—prothioconazole@0.0084 g active ingredient/plant+imidacloprid@0.01 g imidacloprid/plant.
TSWV rating—For TSWV incidence determination, the percentage of plants with TSWV symptoms (chlorosis and stunting) was determined for the four treatments at 21, 29, 38, and 47 days after treatment as in Example 6.
Synergy formula—The Colby formula for proof of synergy was used in Example 7 as in Example 6.

Experiment [3] shares this test system. As to the kind of experiment: Tobacco drench / broadcast spray trial (Example 8). It counts as in vivo, tobacco (Nicotiana tabacum). To be noted: acibenzolar-S-methyl 2.47 g ai/Ha broadcast spray. The text has this:
Cultivation—A trial on tobacco (Nicotiana tabacum) was initiated in Molino, Fla., to see if drenches of prothioconazole alone and in combination with the insecticide imidacloprid could control TSWV in tobacco. Plants of cultivar C-371 Gold were transplanted on April 28 into 9.1 meter plots with three replications. All eight treatments were applied after transplanting on May 1. Foliar treatments were applied as a broadcast spray, while drenches were applied as in Example 6. Acibenzolar-S-methyl is a plant defense activator used to control TSWV in tobacco.
Treatments— • Untreated • Imidacloprid@0.01 g imidacloprid/plant • Imidacloprid@0.015 g Imidacloprid/plant • Prothioconazole@0.0084 g active ingredient/plant • Prothioconazole@0.0084 g active ingredient/plant+Imidacloprid@0.01 g imidacloprid/plant • Prothioconazole@0.0084 g active ingredient/plant+Imidacloprid@0.015 g […] label. • Acibenzolar-S-methyl@2.47 g active ingredient/Ha as a broadcast spray as per label.
TSWV rating—For TSWV incidence determination the percentage of plants with TSWV symptoms (chlorosis and stunting) was determined for the eight treatments as in Example 6.

The mark [4] stands for this setting: 14 days after treatment, prothioconazole 0.0084 g ai/plant, imidacloprid 0.01 g/plant (drench).
[5] abbreviates: 21 days after treatment, prothioconazole 0.0084 g ai/plant, imidacloprid 0.01 g/plant (drench).
Where [6] appears, read: 38 days after treatment, prothioconazole 0.0084 g ai/plant, imidacloprid 0.01 g/plant (drench).

As for `O=[N+]([O-])NC1=NCCN1Cc1ccc(Cl)nc1` [Imidacloprid, imidacloprid], the “Percent control of incidence of TSWV in tomatoes” value in experiment [1] (21 days after treatment) came to 65.07%; in experiment [1] (29 days after treatment) it was 50.52%; in experiment [1] (39 days after treatment), 41.30%. The “Percent incidence of TSWV in tomatoes” value in experiment [1] (21 days after treatment) is given as 10.2%; in experiment [1] (29 days after treatment), 33.4%; in experiment [1] (39 days after treatment), 49.6%. The “Percent control of incidence of TSWV in bell peppers” value came out at 26.14% in experiment [2] (21 days after treatment), 45.84% in experiment [2] (29 days after treatment), 25.49% in experiment [2] (38 days after treatment) and 19.32% in experiment [2] (47 days after treatment). In addition, the “Percent incidence TSWV in bell peppers” value in experiment [2] (21 days after treatment) turned out to be 17.8%; in experiment [2] (29 days after treatment), 25.4%; in experiment [2] (38 days after treatment) it was 38.3%; in experiment [2] (47 days after treatment), 42.6%. The “Increase of TSWV level from 38 DAT to 47 DAT” value in experiment [2] (bell pepper, untreated increased by 1.4 percent) is “roughly 4.5%”. In addition, the “Percent incidence TSWV in tobacco” value in experiment [3] (14 days after treatment, imidacloprid 0.015 g/plant, prothioconazole 0.0084 g ai/plant (drench)) came to 23.9%; in experiment [3] (setting [4]), 23.9%; in experiment [3] (21 days after treatment, imidacloprid 0.015 g/plant, prothioconazole 0.0084 g ai/plant (drench)), 25.5%; in experiment [3] (setting [5]) it was 24.4%; in experiment [3] (38 days after treatment, imidacloprid 0.015 g/plant, prothioconazole 0.0084 g ai/plant (drench)), 45.5%; in experiment [3] (setting [6]), 45.0%.

`CSC(=O)c1cccc2nnsc12` [acibenzolar-S-methyl]: the “Percent incidence TSWV in tobacco” value in experiment [3] (setting [4]) is reported as 36.7%; in experiment [3] (setting [5]), 46.7%; in experiment [3] (setting [6]), 53.9%.
